Earlier results as cited in patent US10912731B2, “Biphasic oral care compositions” (Colgate-Palmolive Company, priority 2017, dated 2021).

Details: aqueous solution

NCCCC[C@H](N)C(=O)O [lysine]
Isoelectric point: 9.7 pH
